The test system of data set [1] is PC-9-OR (19del/T790M/C797S). In words: CCK-8 cell proliferation, PC-9-OR. The format is cell-based. The note with it: PC9-OR, read-out: Average value of IC50 of inhibition against EGFR-mutant cells growth, PC-9-OR (19del/T790M/C797S). An excerpt: (§1) Ba/F3 cells were obtained from Deutsche Sammlung von Mikroorganismen und Zellkulturen GmbH (DSMZ). Ba/F3 cells stably expressing EGFR19del/T790M/C797S or EGFR L858R/T790M/C797S were generated by infecting parental cells with corresponding retroviruses. PC-9-OR was a tumor cell model obtained by simultaneously knocking in T790M and C797S mutations into 19del-activating mutation-dependent PC-9 tumor cells using CRISPR technology. This model, which proliferated dependent on EGFR19del/T790M/C797S resistance mutation, was used to evaluate the inhibitory activity of compounds against EGFR19del/T790M/C797S resistance mutants (Cancer Science. 2022; 113:709-720). All cells used in the study were verified by short tandem repeat (STR) analysis conducted by Genesky.
(§2) Tumor cell viability was assessed using a CCK-8 cell counting kit (A311-01/02, Vazyme, Nanjing, China). Cells were seeded at a density of 3000 cells per well into 96-well plates and cultured overnight. Subsequently, the cells were treated with compounds of different concentrations and incubated for 72 hours. After 72 hours, 10 μL of CCK-8 solution was added to each well. The plates were then returned to the incubator and incubated at 37° C. for 2 hours. The absorbance was measured at 450 nm using a microplate reader. A calibration curve was constructed using data obtained from wells containing known numbers of viable cells.

In data set [2] the target is BaF3-EGFR (19del/T790M/C797S) (Homo sapiens, UniProt P00533, T790M/C797S, cells depend on it, form not given). In words: CCK-8 cell proliferation, BaF3-EGFR(19del/T790M/C797S). As to conditions: CCK-8, 72 hours; read-out: Average value of IC50 of inhibition against EGFR-mutant cells growth, BaF3-EGFR (19del/T790M/C797S). Type of data set: cell-based. Here is the method:
(§3) Ba/F3 cells were obtained from Deutsche Sammlung von Mikroorganismen und Zellkulturen GmbH (DSMZ). […] All cells used in the study were verified by short tandem repeat (STR) analysis conducted by Genesky.
as §2

The subject of a further data set is BaF3 parent cell. Description: CCK-8 cell proliferation, BaF3 parent cell. The format is cell-based. The note with it: Mus musculus, read-out: Average value of IC50 of inhibition against cells growth, BaF3 parent cell.
Text: as §1, §2

The target of data set [3] is BaF3-EGFR (L858R/T790M/C797S) (Homo sapiens, UniProt P00533, T790M/C797S/L858R, cells depend on it). Description: CCK-8 cell proliferation, BaF3-EGFR(L858R/T790M/C797S). Type of data set: cell-based. The note with it: CCK-8, 72 hours; read-out: Average value of IC50 of inhibition against EGFR-mutant cells growth, BaF3-EGFR (L858R/T790M/C797S). Here is the method:
as §3, §2

The target of the next data set is EGFR^L858R/T790M/C797S (Homo sapiens, UniProt P00533, C797S/L858R/T790M). In words: ELISA kinase activity inhibition, EGFR L858R/T790M/C797S. As to conditions: ATP 5 μM, read-out: The average IC50 value (nM) for inhibiting the activity of different tyrosine kinases, EGFR^L858R/T790M/C797S. The format is biochemical. The method, then: (§4) Enzyme-Linked Immunosorbent Assay (ELISA) was used to detect the inhibitory effect of compounds on kinase activity.
Chain of EGFR^L858R/T790M/C797S (P00533 25-1210 T790M/C797S/L858R): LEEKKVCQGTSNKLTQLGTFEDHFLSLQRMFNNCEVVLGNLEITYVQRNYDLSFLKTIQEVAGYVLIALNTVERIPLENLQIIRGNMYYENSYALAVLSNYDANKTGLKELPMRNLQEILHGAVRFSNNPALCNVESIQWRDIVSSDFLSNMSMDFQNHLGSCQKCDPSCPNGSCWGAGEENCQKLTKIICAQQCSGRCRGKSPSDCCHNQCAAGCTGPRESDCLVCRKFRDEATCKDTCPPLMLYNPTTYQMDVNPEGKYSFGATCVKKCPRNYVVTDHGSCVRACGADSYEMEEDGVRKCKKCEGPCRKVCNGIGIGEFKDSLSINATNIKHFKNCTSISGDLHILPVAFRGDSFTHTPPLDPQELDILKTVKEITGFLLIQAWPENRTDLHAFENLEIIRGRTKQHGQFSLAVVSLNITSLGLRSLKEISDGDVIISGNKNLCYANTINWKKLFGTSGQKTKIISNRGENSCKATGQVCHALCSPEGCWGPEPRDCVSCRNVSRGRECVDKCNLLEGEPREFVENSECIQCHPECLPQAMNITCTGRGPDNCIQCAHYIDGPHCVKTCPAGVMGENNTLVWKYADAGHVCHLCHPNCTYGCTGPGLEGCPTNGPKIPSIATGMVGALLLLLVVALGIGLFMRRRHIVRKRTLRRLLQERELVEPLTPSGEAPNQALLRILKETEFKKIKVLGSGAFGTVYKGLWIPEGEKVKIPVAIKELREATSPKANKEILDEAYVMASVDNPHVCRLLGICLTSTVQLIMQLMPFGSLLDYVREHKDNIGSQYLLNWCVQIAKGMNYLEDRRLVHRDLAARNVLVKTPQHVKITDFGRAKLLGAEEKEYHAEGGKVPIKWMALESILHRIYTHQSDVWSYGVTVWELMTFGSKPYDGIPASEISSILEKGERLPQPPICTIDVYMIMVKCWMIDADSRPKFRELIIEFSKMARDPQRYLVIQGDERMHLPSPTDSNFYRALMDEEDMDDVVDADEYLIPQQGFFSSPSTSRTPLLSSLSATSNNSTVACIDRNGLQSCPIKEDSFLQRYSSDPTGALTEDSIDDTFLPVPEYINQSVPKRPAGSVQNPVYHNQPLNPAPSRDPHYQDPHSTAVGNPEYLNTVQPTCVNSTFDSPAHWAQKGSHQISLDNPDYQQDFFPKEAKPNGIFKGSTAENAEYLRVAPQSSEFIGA
(§5) The main experimental steps were as follows: Enzyme reaction substrate Poly (Glu, Tyr)4:1 was diluted with potassium free PBS (10 mM sodium phosphate buffer, 150 mM NaCl, pH 7.2-7.4) to 20 μg/mL, and reacted at 37° C. for 12 hours to 16 hours to coat the enzyme-linked immunosorbent assay plate. ATP solution (final concentration 5 μM) diluted with reaction buffer (50 mM HEPES pH 7.4, 50 mM MgCl2, 0.5 mM MnCl2, 0.2 mM Na3VO4, 1 mM DTT) was added to each well, followed by the test compound or solvent control, then the kinase reaction was initiated and the plate was shaken at 37° C. for 1 hour. The plate was washed three times with T-PBS, then added antibody PY99. The plate was shaken at 37° C. for 0.5 hours. After washing the plate with T-PBS, added horseradish peroxidase-labeled IgG and shaken at 37° C. for 0.5 hours. After washing the plate again, added 2 mg/mL of OPD colorimetric solution and incubated at 25° C. in the dark for 1 minutes to 10 minutes. […] The IC50 values were obtained from the inhibition curve analysis.

The target of a further data set is T1, EGFR^19del/T790M/C797S (Homo sapiens, UniProt P00533, T790M/C797S, form not given).
T1 construct: fused on or other part: Probably a GST tag on the cytoplasmic fragment, as in the vendor's product
T1 sequence (P00533 with tags, fused parts or gaps DEL746-750/T790M/C797S, form open): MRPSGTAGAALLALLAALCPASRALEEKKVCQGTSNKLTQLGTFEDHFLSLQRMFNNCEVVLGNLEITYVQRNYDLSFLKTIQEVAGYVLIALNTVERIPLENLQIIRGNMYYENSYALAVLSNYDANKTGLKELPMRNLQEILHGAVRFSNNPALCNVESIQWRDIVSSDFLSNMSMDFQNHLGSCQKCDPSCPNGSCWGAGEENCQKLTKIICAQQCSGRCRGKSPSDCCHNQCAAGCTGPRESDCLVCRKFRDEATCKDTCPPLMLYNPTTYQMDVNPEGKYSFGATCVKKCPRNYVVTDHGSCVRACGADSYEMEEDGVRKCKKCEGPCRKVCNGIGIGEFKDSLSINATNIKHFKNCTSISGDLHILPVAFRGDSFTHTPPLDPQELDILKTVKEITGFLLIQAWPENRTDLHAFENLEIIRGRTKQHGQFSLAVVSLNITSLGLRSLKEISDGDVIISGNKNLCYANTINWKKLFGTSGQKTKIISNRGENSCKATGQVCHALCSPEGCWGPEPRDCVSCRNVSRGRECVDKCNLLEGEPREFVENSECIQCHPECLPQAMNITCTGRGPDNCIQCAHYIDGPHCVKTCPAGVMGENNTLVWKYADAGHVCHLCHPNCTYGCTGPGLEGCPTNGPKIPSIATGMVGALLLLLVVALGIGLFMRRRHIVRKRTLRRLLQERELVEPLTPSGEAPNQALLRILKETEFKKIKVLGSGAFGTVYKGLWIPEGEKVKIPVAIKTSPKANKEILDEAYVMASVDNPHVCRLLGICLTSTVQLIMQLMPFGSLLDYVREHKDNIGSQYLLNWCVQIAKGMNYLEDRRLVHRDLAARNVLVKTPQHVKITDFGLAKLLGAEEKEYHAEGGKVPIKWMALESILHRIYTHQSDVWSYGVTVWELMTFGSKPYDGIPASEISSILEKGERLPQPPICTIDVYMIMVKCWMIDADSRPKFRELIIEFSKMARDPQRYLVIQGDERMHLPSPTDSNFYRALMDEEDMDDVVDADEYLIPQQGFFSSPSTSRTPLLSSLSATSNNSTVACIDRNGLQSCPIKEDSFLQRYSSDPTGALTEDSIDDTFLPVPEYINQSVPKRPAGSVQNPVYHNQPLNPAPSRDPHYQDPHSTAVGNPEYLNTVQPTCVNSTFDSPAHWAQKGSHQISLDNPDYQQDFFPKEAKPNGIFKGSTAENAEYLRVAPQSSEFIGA
In words: ELISA kinase activity inhibition, EGFR 19del/T790M/C797S. The format is biochemical. As to conditions: ATP 5 μM, read-out: The average IC50 value (nM) for inhibiting the activity of different tyrosine kinases, EGFR^19del/T790M/C797S. The method, then: (§6) EGFR (WT) is a wild-type epidermal growth factor receptor.
as §4, §5

The next data set deals with T2, EGFR^WT (Homo sapiens, UniProt P00533).
T2 construct: purchased Eurofins
T2 sequence (P00533 25-1210): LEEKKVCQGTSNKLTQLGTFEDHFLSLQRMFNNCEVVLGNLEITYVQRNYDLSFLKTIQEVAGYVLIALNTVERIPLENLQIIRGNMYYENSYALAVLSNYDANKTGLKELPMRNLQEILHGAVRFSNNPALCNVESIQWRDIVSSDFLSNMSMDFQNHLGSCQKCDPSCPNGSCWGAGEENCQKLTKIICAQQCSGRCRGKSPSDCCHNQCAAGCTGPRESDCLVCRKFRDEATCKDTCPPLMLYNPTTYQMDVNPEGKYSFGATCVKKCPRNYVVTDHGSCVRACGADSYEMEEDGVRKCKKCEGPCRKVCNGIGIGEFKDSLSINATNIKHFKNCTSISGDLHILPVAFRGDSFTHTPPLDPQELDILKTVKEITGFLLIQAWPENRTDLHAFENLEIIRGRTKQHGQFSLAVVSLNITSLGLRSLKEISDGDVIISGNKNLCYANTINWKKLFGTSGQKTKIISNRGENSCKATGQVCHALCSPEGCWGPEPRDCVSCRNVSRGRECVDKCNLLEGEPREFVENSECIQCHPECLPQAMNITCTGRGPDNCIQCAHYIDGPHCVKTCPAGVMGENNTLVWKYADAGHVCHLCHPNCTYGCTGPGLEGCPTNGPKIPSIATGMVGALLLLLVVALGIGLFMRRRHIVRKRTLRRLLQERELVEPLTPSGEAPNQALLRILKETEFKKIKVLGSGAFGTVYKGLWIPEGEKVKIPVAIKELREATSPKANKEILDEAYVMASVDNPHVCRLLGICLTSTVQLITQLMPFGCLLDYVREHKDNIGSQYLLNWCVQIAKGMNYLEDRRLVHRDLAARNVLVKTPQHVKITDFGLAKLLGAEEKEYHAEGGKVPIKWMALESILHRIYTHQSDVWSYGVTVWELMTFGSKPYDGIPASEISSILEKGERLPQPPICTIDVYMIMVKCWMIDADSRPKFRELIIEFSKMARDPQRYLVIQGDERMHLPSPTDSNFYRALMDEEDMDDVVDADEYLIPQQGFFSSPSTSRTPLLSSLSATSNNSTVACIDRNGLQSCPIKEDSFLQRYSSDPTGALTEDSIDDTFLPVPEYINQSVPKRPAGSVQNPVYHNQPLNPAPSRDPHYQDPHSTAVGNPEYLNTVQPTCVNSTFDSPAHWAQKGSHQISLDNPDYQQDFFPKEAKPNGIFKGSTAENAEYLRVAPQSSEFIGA
Description: ELISA kinase activity inhibition, wild-type EGFR. The note with it: ATP 5 μM, read-out: The average IC50 value (nM) for inhibiting the activity of different tyrosine kinases, EGFR^WT. The format is biochemical. The method, then:
as §6, §4, §5
For orientation: An ELISA detects its analyte on a solid surface through an enzyme-linked reagent.

Data set [4] in a line: Pharmacokinetic parameters in rats. Type of data set: in vivo. The note with it: male, Sprague-Dawley, plasma, rat. Here is the method: Sprague-Dawley rats (males, 3 per group), weighing 180 g to 220 g, were administered test compounds intravenously and orally at doses of 1 mg/kg and 5 mg/kg, respectively. The compounds were dissolved in a mixed solvent (5% DMSO+10% Solutol+85% PBS) for intravenous injection. 0.5% CMC-Na solution (800 cps to 1200 cps) was used as a suspension agent for oral administration. At designated time points, 0.2 mL of blood samples were collected via the jugular vein and placed into tubes containing K2-EDTA, stored on ice, and then centrifuged. Sampling intervals for the injection group were 0.083, 0.25, 0.5, 1, 2, 4, 8, and 24 hours, while for the oral group, sampling intervals were 0.25, 0.5, 1, 2, 4, 6, 8, and 24 hours. The blood samples were centrifuged at 6800 g for 6 minutes at 2° C. to 8° C. within 1 hour after collection and stored frozen at approximately −80° C. Subsequently, 200 μL of MeOH was used to precipitate 20 μL of plasma samples containing 100 ng/mL IS. The mixture was vortexed for 1 minute and then centrifuged at 18000 g for 7 minutes. 200 μL of the supernatant was transferred to a 96-well plate, and 1 μL of the supernatant sample was injected for LC-MS/MS analysis. Finally, Phoenix WinNonlin7.0 software was used to calculate the pharmacokinetic (PK) parameters.

Like-named read-outs stand apart in the source and are kept apart here.

What is called Cmax is the maximum level reached in the sampled fluid or tissue. Usually clearance stands for the volume of plasma or blood freed of the substance per unit of time. Lower therefore signals inefficient removal. In general, half-life refers to the time in which the quantity being followed falls by half. As usually defined, the bioavailability is the share of a dose that reaches the circulation, judged against a reference dose that is usually intravenous.

Chain of BaF3-EGFR (L858R/T790M/C797S) (P00533 whole entry T790M/C797S/L858R): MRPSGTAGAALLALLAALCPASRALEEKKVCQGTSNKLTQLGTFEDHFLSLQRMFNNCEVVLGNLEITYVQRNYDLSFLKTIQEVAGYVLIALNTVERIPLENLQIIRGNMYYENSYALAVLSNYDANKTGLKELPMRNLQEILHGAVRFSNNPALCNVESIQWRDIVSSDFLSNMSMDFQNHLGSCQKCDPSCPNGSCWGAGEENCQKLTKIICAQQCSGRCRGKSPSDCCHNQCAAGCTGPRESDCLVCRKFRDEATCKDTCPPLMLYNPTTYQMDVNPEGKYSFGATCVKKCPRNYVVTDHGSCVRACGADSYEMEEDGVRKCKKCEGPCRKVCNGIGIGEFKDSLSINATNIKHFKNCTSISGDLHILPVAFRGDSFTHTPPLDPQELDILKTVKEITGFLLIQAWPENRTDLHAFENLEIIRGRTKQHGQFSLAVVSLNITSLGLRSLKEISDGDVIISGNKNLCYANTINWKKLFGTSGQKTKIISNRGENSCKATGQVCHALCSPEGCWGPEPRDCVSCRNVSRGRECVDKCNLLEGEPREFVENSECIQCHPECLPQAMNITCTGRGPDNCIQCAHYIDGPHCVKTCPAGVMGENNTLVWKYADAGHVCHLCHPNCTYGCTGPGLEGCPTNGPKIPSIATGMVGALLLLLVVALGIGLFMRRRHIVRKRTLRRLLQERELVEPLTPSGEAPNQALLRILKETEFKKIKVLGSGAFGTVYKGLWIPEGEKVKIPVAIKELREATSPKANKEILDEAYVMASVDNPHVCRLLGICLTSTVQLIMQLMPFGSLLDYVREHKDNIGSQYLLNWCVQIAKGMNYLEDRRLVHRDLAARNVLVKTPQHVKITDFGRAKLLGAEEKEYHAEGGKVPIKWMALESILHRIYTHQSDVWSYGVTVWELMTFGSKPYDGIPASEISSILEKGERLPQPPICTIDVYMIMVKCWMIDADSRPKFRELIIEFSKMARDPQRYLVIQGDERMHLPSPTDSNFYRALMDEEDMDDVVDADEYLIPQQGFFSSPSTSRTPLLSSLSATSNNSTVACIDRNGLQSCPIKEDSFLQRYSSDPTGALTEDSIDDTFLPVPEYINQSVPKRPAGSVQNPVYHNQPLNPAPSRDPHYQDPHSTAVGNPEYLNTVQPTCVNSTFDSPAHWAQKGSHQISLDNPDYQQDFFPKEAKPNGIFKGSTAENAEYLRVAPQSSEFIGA

As to `COc1cc(N2CCC(N3CCN(C)CC3)CC2)ccc1Nc1ncc(Cl)c(Nc2ccccc2P(C)(C)=O)n1` [Brigatinib, reference compound], the IC50 in data set [1] (72 h) was found to be 1450 nM; in the data set on BaF3 parent cell (BaF3, 72 h), 1480 nM. Further, the GI50 came to 221 nM in data set [2] and 777 nM in data set [3].

As to `CCc1cc(N2CCOCC2)c2cc1Nc1nccc(n1)-c1cn(S(=O)(=O)CC)c3cc(ccc13)OCCCn1ccc-2n1` [FBH-3-47, (Z)-4^6-ethyl-1^1-(ethylsulfonyl)-4^4-morpholino-1^1H,5^1H-9-oxa-3-aza-1(3,6)-indole-2(4,2)-pyrimidine-5(4,1)-pyrazol-4(1,3)-benzenacyclononaphane], the GI50 in data set [2] was determined as 229 nM; in data set [3] it was 327 nM. The IC50 with BaF3 parent cell (BaF3, CCK-8, 72 hours) was 2230 nM; at EGFR^L858R/T790M/C797S, 54.8 nM; on EGFR^19del/T790M/C797S it was 23.3 nM; at EGFR^WT it was over 1000 nM.

As to `CCOc1cc(N2CCOCC2)c2cc1Nc1nccc(n1)-c1cn(S(=O)(=O)CC)c3cc(ccc13)OCCCn1cc-2cn1` [HC9596, (Z)-4^6-ethoxy-1^1-ethylsulfonyl-4^4-morpholino-1^1H,5^1H-9-oxa-3-aza-1(3,6)-indole-2(4,2)-pyrimidine-5(4,1)-pyrazole-4(1,3)-benzenacyclononaphane], the GI50 turned out to be 371 nM in data set [2] and 455 nM in data set [3]. Besides, the IC50 in the data set on BaF3 parent cell (BaF3, CCK-8, 72 hours) was 3180 nM; at EGFR^L858R/T790M/C797S it was 11.8 nM; on EGFR^19del/T790M/C797S, 7.4 nM; on EGFR^WT, 186 nM.

As for `CCS(=O)(=O)n1cc2c3ccc(cc31)OCCCn1cc(cn1)-c1cc(cc(CC(C)C)c1N1CCOCC1)Nc1ncc(Cl)c-2n1` [HC90032, 2^5-chloro-1^1-ethylsulfonyl-4^4-morpholino-4^5-2-methylpropyl-1^1H,5^1H-9-oxa-3-aza-1(3,6)-indole-2(4,2)-pyrimidin-5(4,1)-pyrazol-4(1,3)-benzenacyclononaphane], the IC50 on EGFR^L858R/T790M/C797S is 343 nM; on EGFR^19del/T790M/C797S it was 192 nM; on EGFR^WT, over 1000 nM.

Regarding `CCS(=O)(=O)n1cc2c3ccc(cc31)OCCCn1cc(cn1)-c1cc(cc(CCC(C)(C)C)c1N1CCOCC1)Nc1ncc(Cl)c-2n1` [HC90042, 2^5-chloro-4^5-(E)-3,3-dimethylbutyl)-1^1-ethylsulfonyl-4^4-morpholin-1^1H,5^1H-9-oxa-3-aza-1(3,6)-indole-2(4,2)-pyrimidin-5(4,1)-pyrazolol-4 (1,3)-benzenacyclononaphane], the IC50 on EGFR^L858R/T790M/C797S, on EGFR^19del/T790M/C797S and at EGFR^WT was over 1000 nM throughout.

Consider `C=CC(=O)Nc1cc(Nc2nccc(-c3cn(C)c4ccccc34)n2)c(OC)cc1N(C)CCN(C)C` [Osimertinib, reference compound], for which the IC50 amounted to 2100 nM in data set [1] (CCK-8, 72 hours) and 2370 nM in the data set on BaF3 parent cell (BaF3, CCK-8, 72 hours).

Turning to `CCS(=O)(=O)n1cc2c3ccc(cc31)OCC(C)Cn1cc(cn1)-c1cc(c(OC)cc1N1CCOCC1)Nc1nccc-2n1` (centres unmarked) [WQX-1-80, (Z)-1^1-(ethylsulfonyl)-4^6-Methoxy-7-methyl-4^4-morpholino-1^1H,5^1H-9-oxa-3-aza-1(3,6)-indole-2(4,2)-pyrimidin-5(4,1)-pyrazol-4(1,3)-benzenacyclononaphane], the figures for the GI50 in data set [2] and in data set [3] were 311 nM and 734 nM, respectively. The IC50 in the data set with BaF3 parent cell (BaF3, CCK-8, 72 hours) is 1870 nM; on EGFR^L858R/T790M/C797S, 53.2 nM; on EGFR^19del/T790M/C797S it was 23.3 nM; on EGFR^WT it was over 1000 nM.

In the case of `CCS(=O)(=O)n1cc2c3ccc(cc31)OC(C)CCn1cc(cn1)-c1cc(c(OC)cc1N1CCOCC1)Nc1nccc-2n1` (centres unmarked) [WQX-1-86, (Z)-1^1-(ethylsulfonyl)-4^6-methoxy-8-methyl-4^4-morpholino-1^1H,5^1H-9-oxa-3-aza-1(3,6)-indole-2(4,2)-pyrimidin-5(4,1)-pyrazol-4(1,3)-benzenacyclononaphane], the GI50 in data set [2] was 465 nM. Also, the IC50 was 2000 nM with BaF3 parent cell (BaF3, CCK-8, 72 hours); 12.6 nM at EGFR^L858R/T790M/C797S; 8.2 nM on EGFR^19del/T790M/C797S; over 1000 nM at EGFR^WT.

On to `CCS(=O)(=O)n1cc2c3ccc(cc31)OCC1(CC1)Cn1cc(cn1)-c1cc(c(OC)cc1N1CCOCC1)Nc1nccc-2n1` [WQX-1-87, (Z)-1′-(ethylsulfonyl)-6′-methoxy-4′-morpholino spiro[cyclopropane-7′-9-oxa-3-aza-1(3,6)-indole-2(4,2)-pyrimidin-5(4,1)-pyrazol-4(1,3)-benzenacyclononaphane]], for which the results for the IC50 on EGFR^L858R/T790M/C797S, at EGFR^19del/T790M/C797S and at EGFR^WT were 63.3 nM, 33 nM and over 1000 nM, respectively.

For `CCS(=O)(=O)n1cc2c3ccc(cc31)OCCCn1cc(cn1)-c1cc(c(OC)cc1CN1CCOCC1)Nc1nccc-2n1` [WQX-2-35, (Z)-1^1-(ethylsulfonyl)-4^6-methoxy-4^4-(morpholinomethyl)-1^1H,5^1H-9-oxa-3-aza-1(3,6)-indole-2(4,2)-pyrimidine-5(4,1)-pyrazole-4(1,3)-benzocyclononane], the IC50 is 14.1 nM on EGFR^L858R/T790M/C797S, 1 nM on EGFR^19del/T790M/C797S and 141 nM at EGFR^WT.

With `CCS(=O)(=O)n1cc2c3ccc(cc31)OCCCCCCOc1cc(ccc1N1CCOCC1)Nc1ncc(Cl)c-2n1` [reference compound], the IC50 on EGFR^L858R/T790M/C797S was 14.4 nM; on EGFR^19del/T790M/C797S, 9 nM; on EGFR^WT, 190 nM.

On to `CCS(=O)(=O)n1cc2c3ccc(cc31)OCCCCCCOc1cc(c(C)cc1N1CCOCC1)Nc1ncc(Cl)c-2n1` [reference compound], for which, in data set [4] (IV 1 mg/kg), the Cmax stood at 2420 ± 165 ng/mL, the clearance came to 16.2 ± 1.4 mL/min/kg and the half-life is 1.35 ± 0.18 h. Also, in data set [4] (PO 5 mg/kg), the Cmax is 135 ng/mL and the half-life is 2.57 h. Further, the bioavailability in data set [4] (PO 5 mg/kg, read-out: F (oral bioavailability)) worked out at 11.9%.

The record behind these values is patent publication US20260184725A1, “CYCLIC 2-AMINOPYRIMIDINE COMPOUND AND PHARMACEUTICAL COMPOSITION AND USE THEREOF” (SHANGHAI INSTITUTE OF ORGANIC CHEMISTRY, CHINESE ACADEMY OF …, priority 2023, published 2026).
